According to PubChem BioAssay AID776 (The Scripps Research Institute Molecular Screening Center, 2007):
Calls of active or inactive are those of the source.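 Rule for the calls: active = compounds whose IC50 for cutting the S1P-driven reporter signal is at most 40 micromolar; inactive = IC50 above 40 micromolar.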

target: CHO S1P3/Ga15 NFAT-beta-lactamase reporter, FRET; test: S1P3 receptor NFAT-BLA reporter inhibition, dose response, counter-screen for 5HT1E antagonist project, CHO cells, Ga15, NFAT beta-lactamase, FRET (AID 776)

Row | SMILES | IC50
1 | CC(=O)Oc1ccc(N2C(=O)C3C(C2=O)C2(C)C=CC3(C)O2)cc1 (stereo not given) | 7.56 µM
2 | O=C1C2C3C=CC(CO)(O3)C2C(=O)N1c1ccc(-c2ccccc2)cc1 (stereo not given) | > 12.4 µM (inactive)
3 | COc1cc2c(cc1OC)C1=C(C#N)CC/C(=N\S(=O)(=O)c3ccccc3)N1CC2 | > 50 µM (inactive)
4 | COc1ccc(N2C(=O)CC(NCc3ccncc3)C2=O)cc1 (stereo not given) | > 50 µM (inactive)
5 | CSc1ccccc1N=CC1=C(O)CC(C)(C)CC1=O | 4.33 µM
